For 26 substances, 3 h FOB score results are on record in the OligoGym collection.

HELM strings list units from the 5' end as sugar, base in round brackets, then linkage (d deoxyribose, r ribose, m 2'-O-methyl, p phosphodiester). Strings are as the collection lists them; they lack the last nucleoside at the 3' end of the tested compound. [moe] = 2'-O-(2-methoxyethyl) (MOE); [sp] = phosphorothioate linkage; [m5C] = 5-methylcytosine

This data set concerns the target ATXN2. Briefly: mouse, dose not given. The settings on record: ASO.
Take “RNA1{[moe](G)[sp].[moe]([m5C])p.[moe](A)p.[moe]([m5C])p.[moe](A)p.d(T)[sp].d(A)[sp].d(G)[sp].d(G)[sp].d(T)[sp].d(T)[sp].d(A)[sp].d(G)[sp].d(A)[sp].d(A)[sp].[moe](T)p.[moe](T)p.[moe](T)[sp].[moe](T)}$$$$ (last 3' nucleoside missing)”: the 3 h FOB score was 4 score 0-7.

For “RNA1{[moe](G)[sp].[moe]([m5C])p.[moe](G)p.[moe](G)p.[moe](T)p.d(G)[sp].d(A)[sp].d(A)[sp].d(T)[sp].d(T)[sp].d([m5C])[sp].d(T)[sp].d(G)[sp].d(T)[sp].d([m5C])[sp].[moe](T)p.[moe]([m5C])p.[moe]([m5C])[sp].[moe]([m5C])}$$$$ (last 3' nucleoside missing)”, the 3 h FOB score stood at 0 score 0-7.

“RNA1{[moe](G)[sp].[moe]([m5C])p.[moe](T)p.[moe](A)p.[moe](A)[sp].d([m5C])[sp].d(T)[sp].d(G)[sp].d(G)[sp].d(T)[sp].d(T)[sp].d(T)[sp].d(G)[sp].[moe]([m5C])p.[moe]([m5C])p.[moe]([m5C])[sp].[moe](T)}$$$$ (last 3' nucleoside missing)” had a 3 h FOB score of 6.5 score 0-7.

Substance “RNA1{[moe](G)[sp].[moe]([m5C])p.[moe](T)p.[moe](A)p.[moe](A)p.d([m5C])[sp].d(T)[sp].d(G)[sp].d(G)[sp].d(T)[sp].d(T)[sp].d(T)[sp].d(G)[sp].d([m5C])[sp].d([m5C])[sp].[moe]([m5C])p.[moe](T)p.[moe](T)[sp].[moe](G)}$$$$ (last 3' nucleoside missing)” gave a 3 h FOB score of 6.75 score 0-7.

For the substance “RNA1{[moe](G)[sp].[moe]([m5C])p.[moe](T)p.[moe](G)p.[moe](A)p.d(T)[sp].d(G)[sp].d(T)[sp].d(G)[sp].d(T)[sp].d(T)[sp].d([m5C])[sp].d(A)[sp].d(T)[sp].d(G)[sp].[moe](A)p.[moe]([m5C])p.[moe](T)[sp].[moe](T)}$$$$ (last 3' nucleoside missing)”, the 3 h FOB score was 4.5 score 0-7.

Substance “RNA1{[moe](G)[sp].[moe]([m5C])p.[moe](T)p.[moe](G)p.[moe](G)p.d(T)[sp].d(T)[sp].d([m5C])[sp].d([m5C])[sp].d(T)[sp].d(T)[sp].d(A)[sp].d([m5C])[sp].d(A)[sp].d(A)[sp].[moe](T)p.[moe](T)p.[moe](A)[sp].[moe](T)}$$$$ (last 3' nucleoside missing)” returned a 3 h FOB score of 0 score 0-7.

Turning to “RNA1{[moe](G)[sp].[moe]([m5C])p.[moe](T)p.[moe](G)p.[moe](T)p.d(A)[sp].d(T)[sp].d(T)[sp].d(T)[sp].d(T)[sp].d(T)[sp].d(A)[sp].d([m5C])[sp].d(T)[sp].d([m5C])[sp].[moe](A)p.[moe]([m5C])p.[moe]([m5C])[sp].[moe](T)}$$$$ (last 3' nucleoside missing)”, the 3 h FOB score turned out to be 0 score 0-7.

Substance “RNA1{[moe](G)[sp].[moe]([m5C])p.[moe](T)p.[moe](G)p.[moe](T)p.d(G)[sp].d(A)[sp].d(G)[sp].d(T)[sp].d(T)[sp].d([m5C])[sp].d(A)[sp].d([m5C])[sp].d([m5C])[sp].d(T)[sp].[moe](G)p.[moe]([m5C])p.[moe](A)[sp].[moe](T)}$$$$ (last 3' nucleoside missing)” showed a 3 h FOB score of 0 score 0-7.

Take “RNA1{[moe](G)[sp].[moe]([m5C])p.[moe](T)p.[moe](G)p.[moe](T)p.d(G)[sp].d(T)[sp].d(A)[sp].d(T)[sp].d(T)[sp].d(T)[sp].d(T)[sp].d(T)[sp].d([m5C])[sp].d(T)[sp].[moe](T)p.[moe]([m5C])p.[moe]([m5C])[sp].[moe](T)}$$$$ (last 3' nucleoside missing)”: the 3 h FOB score worked out at 0 score 0-7.

Turning to “RNA1{[moe](G)[sp].[moe]([m5C])p.[moe](T)p.[moe](T)p.[moe](A)[sp].d(G)[sp].d(A)[sp].d(G)[sp].d(T)[sp].d(T)[sp].d(T)[sp].d(T)[sp].d(T)[sp].[moe](G)p.[moe]([m5C])p.[moe]([m5C])[sp].[moe](T)}$$$$ (last 3' nucleoside missing)”, the 3 h FOB score was determined as 4 score 0-7.

With “RNA1{[moe](G)[sp].[moe]([m5C])p.[moe](T)p.[moe](T)p.[moe](A)p.[moe](G)p.d(A)[sp].d(G)[sp].d(T)[sp].d(T)[sp].d(T)[sp].d(T)[sp].d(T)[sp].d(G)[sp].d([m5C])[sp].d([m5C])[sp].[moe](T)p.[moe](T)[sp].[moe]([m5C])}$$$$ (last 3' nucleoside missing)”, the 3 h FOB score came out at 5 score 0-7.

The substance “RNA1{[moe](G)[sp].[moe]([m5C])p.[moe](T)p.[moe](T)p.[moe](A)p.d(G)[sp].d(A)[sp].d(G)[sp].d(T)[sp].d(T)[sp].d(T)[sp].d(T)[sp].d(T)[sp].d(G)[sp].d([m5C])[sp].[moe]([m5C])p.[moe](T)p.[moe](T)[sp].[moe]([m5C])}$$$$ (last 3' nucleoside missing)” had a 3 h FOB score of 4 score 0-7.

Take “RNA1{[moe](G)[sp].[moe]([m5C])p.[moe](T)p.[moe](T)p.[moe](A)p.d(T)[sp].d(T)[sp].d(A)[sp].d(T)[sp].d(T)[sp].d([m5C])[sp].d(T)[sp].d([m5C])[sp].d(A)[sp].d([m5C])[sp].[moe](A)p.[moe](T)p.[moe](A)[sp].[moe](T)}$$$$ (last 3' nucleoside missing)”: the 3 h FOB score was 0 score 0-7.

Turning to “RNA1{[moe](G)[sp].[moe]([m5C])p.[moe](T)p.[moe](T)p.d(A)[sp].d(G)[sp].d(A)[sp].d(G)[sp].d(T)[sp].d(T)[sp].d(T)[sp].d(T)[sp].d(T)[sp].d(G)[sp].[moe]([m5C])p.[moe]([m5C])p.[moe](T)p.[moe](T)[sp].[moe]([m5C])}$$$$ (last 3' nucleoside missing)”, the 3 h FOB score amounted to 4 score 0-7.

Substance “RNA1{[moe](T)[sp].[moe](A)p.[moe](A)p.[moe](G)p.[moe](A)p.d([m5C])[sp].d(T)[sp].d(T)[sp].d(T)[sp].d(T)[sp].d(T)[sp].d(A)[sp].d(T)[sp].d(G)[sp].d(T)[sp].[moe](T)p.[moe](G)p.[moe]([m5C])[sp].[moe](T)}$$$$ (last 3' nucleoside missing)” returned a 3 h FOB score of 1 score 0-7.

Take “RNA1{[moe](T)[sp].[moe](A)p.[moe](A)p.[moe](G)p.[moe]([m5C])p.d(T)[sp].d(G)[sp].d(T)[sp].d(G)[sp].d([m5C])[sp].d(T)[sp].d(A)[sp].d(T)[sp].d(G)[sp].d(G)[sp].[moe](T)p.[moe](G)p.[moe](G)[sp].[moe](T)}$$$$ (last 3' nucleoside missing)”: the 3 h FOB score came out at 6.25 score 0-7.

In the case of “RNA1{[moe](T)[sp].[moe](A)p.[moe](A)p.[moe](T)p.[moe](A)p.d(T)[sp].d(T)[sp].d([m5C])[sp].d([m5C])[sp].d(A)[sp].d(T)[sp].d(A)[sp].d([m5C])[sp].d(A)[sp].d(G)[sp].[moe](A)p.[moe](T)p.[moe]([m5C])[sp].[moe](G)}$$$$ (last 3' nucleoside missing)”, the 3 h FOB score is 0 score 0-7.

The substance “RNA1{[moe](T)[sp].[moe](A)p.[moe](A)p.[moe]([m5C])p.[moe](T)[sp].d(G)[sp].d(G)[sp].d(T)[sp].d(T)[sp].d(T)[sp].d(G)[sp].d([m5C])[sp].d([m5C])[sp].[moe]([m5C])p.[moe](T)p.[moe](T)[sp].[moe](G)}$$$$ (last 3' nucleoside missing)” returned a 3 h FOB score of 6 score 0-7.

As to “RNA1{[moe](T)[sp].[moe](A)p.[moe](G)p.[moe](A)p.[moe](G)p.d(T)[sp].d(T)[sp].d(T)[sp].d(T)[sp].d(T)[sp].d(G)[sp].d([m5C])[sp].d([m5C])[sp].d(T)[sp].d(T)[sp].[moe]([m5C])p.[moe]([m5C])p.[moe](A)[sp].[moe](T)}$$$$ (last 3' nucleoside missing)”, the 3 h FOB score stood at 2.5 score 0-7.

Take “RNA1{[moe](T)[sp].[moe](A)p.[moe](G)p.[moe](T)p.[moe](G)p.d(T)[sp].d(T)[sp].d(T)[sp].d(G)[sp].d(G)[sp].d(G)[sp].d(A)[sp].d(T)[sp].d(G)[sp].d([m5C])[sp].[moe](T)p.[moe](T)p.[moe]([m5C])[sp].[moe](A)}$$$$ (last 3' nucleoside missing)”: the 3 h FOB score turned out to be 6.25 score 0-7.

For “RNA1{[moe](T)[sp].[moe](A)p.[moe](G)p.[moe]([m5C])p.[moe](A)p.d(T)[sp].d([m5C])[sp].d(A)[sp].d(T)[sp].d(T)[sp].d(G)[sp].d(G)[sp].d([m5C])[sp].d(G)[sp].d([m5C])[sp].[moe](A)p.[moe](T)p.[moe](G)[sp].[moe](G)}$$$$ (last 3' nucleoside missing)”, the 3 h FOB score was 6.25 score 0-7.

With “RNA1{[moe](T)[sp].[moe](A)p.[moe](G)p.[moe]([m5C])p.[moe](A)p.d([m5C])[sp].d(T)[sp].d(T)[sp].d(G)[sp].d(G)[sp].d(T)[sp].d(T)[sp].d([m5C])[sp].d(A)[sp].d(A)[sp].[moe](T)p.[moe](T)p.[moe](T)[sp].[moe](T)}$$$$ (last 3' nucleoside missing)”, the 3 h FOB score was determined as 6 score 0-7.

“RNA1{[moe](T)[sp].[moe](A)p.[moe](G)p.[moe]([m5C])p.[moe](T)p.d([m5C])[sp].d(A)[sp].d(T)[sp].d([m5C])[sp].d(A)[sp].d(A)[sp].d(G)[sp].d(G)[sp].d(T)[sp].d(A)[sp].[moe]([m5C])p.[moe]([m5C])p.[moe](A)[sp].[moe](G)}$$$$ (last 3' nucleoside missing)” registered a 3 h FOB score of 3 score 0-7.

Turning to “RNA1{[moe](T)[sp].[moe](A)p.[moe](T)p.[moe](G)p.[moe](A)p.d(G)[sp].d(G)[sp].d(G)[sp].d(A)[sp].d([m5C])[sp].d(T)[sp].d(A)[sp].d(G)[sp].d(A)[sp].d(G)[sp].[moe]([m5C])p.[moe](A)p.[moe](T)[sp].[moe]([m5C])}$$$$ (last 3' nucleoside missing)”, the 3 h FOB score is 6.25 score 0-7.

The substance “RNA1{[moe](T)[sp].[moe](A)p.[moe](T)p.[moe](G)p.[moe](T)[sp].d(T)[sp].d(T)[sp].d(G)[sp].d(T)[sp].d([m5C])[sp].d(T)[sp].d(G)[sp].d(T)[sp].[moe]([m5C])p.[moe](T)p.[moe](T)[sp].[moe](A)}$$$$ (last 3' nucleoside missing)” registered a 3 h FOB score of 6 score 0-7.

In turn, “RNA1{[moe](T)[sp].[moe](A)p.[moe](T)p.[moe]([m5C])p.[moe](A)[sp].d(T)[sp].d([m5C])[sp].d(A)[sp].d(T)[sp].d(T)[sp].d(T)[sp].d(T)[sp].d([m5C])[sp].[moe]([m5C])p.[moe](A)p.[moe](G)[sp].[moe](G)}$$$$ (last 3' nucleoside missing)” came in with a 3 h FOB score of 1.5 score 0-7.
